# Source: US20110055943A1, “NOVEL THERAPEUTIC TARGETS IN INFLAMMATORY BOWEL DISEASE” (SALIX PHARMACEUTICALS, LTD., priority 2007, published 2011)
# Legend:
# CYP3A = test: Pharmacokinetics of MDZ in hPXR mice pretreated with RIFax; settings: MDZ 2.5 mg/kg oral; for AUC0-90 min / Cmax / Tmax: serum; for AUC0-90 min ratio RIFax/Cont / Cmax ratio RIFax/Cont / Tmax ratio RIFax/Cont: hPXR mice, RIFax pretreated vs control
# Description: Blood samples were collected from suborbital veins using heparinized tubes at pre-dose, 5, 10, 20, 30, 60, and 90 min after administration of MDZ. Serum was separated by centrifugation at 8,000 g for 10 min. For MDZ and 1′-OH-MDZ extraction, 50 μl of serum was mixed with 150 μl of phosphate-buffered saline, 200 μl of ethyl acetate, and 200 μl of methyl t-butyl ether. The mixture was centrifuged at 3,000 rpm for 5 min at 4° C. The organic layer was then transferred to a new tube, dried with N2, and reconstituted in 100 μl of 70% aqueous methanol and 30% H2O containing 0.1% formic acid. […] Pharmacokinetic parameters for MDZ and 1′-OH-MDZ were estimated from the plasma concentration-time data by a non-compartmental approach using WinNonlin (Pharsight, Mountain View, Calif.). The area under the serum concentration-time curve (AUC0-90 min) was calculated by the trapezoidal rule. The maximum concentration in serum (Cmax) and its corresponding time (Tmax) were obtained from the original data.
# MRP2 [1] = settings: rat hepatocytes; cited from earlier work
# MRP2 [2] = settings: mouse PXR ligand; cited from earlier work
# PXR = molecular target: T1, PXR (Mus musculus, UniProt O54915); settings: dextran sulfate sodium (DSS)-induced BD mouse model; cited from earlier work
# T1 construct: host or cells: mice (DSS colitis model)
# T1 sequence (O54915 1-431): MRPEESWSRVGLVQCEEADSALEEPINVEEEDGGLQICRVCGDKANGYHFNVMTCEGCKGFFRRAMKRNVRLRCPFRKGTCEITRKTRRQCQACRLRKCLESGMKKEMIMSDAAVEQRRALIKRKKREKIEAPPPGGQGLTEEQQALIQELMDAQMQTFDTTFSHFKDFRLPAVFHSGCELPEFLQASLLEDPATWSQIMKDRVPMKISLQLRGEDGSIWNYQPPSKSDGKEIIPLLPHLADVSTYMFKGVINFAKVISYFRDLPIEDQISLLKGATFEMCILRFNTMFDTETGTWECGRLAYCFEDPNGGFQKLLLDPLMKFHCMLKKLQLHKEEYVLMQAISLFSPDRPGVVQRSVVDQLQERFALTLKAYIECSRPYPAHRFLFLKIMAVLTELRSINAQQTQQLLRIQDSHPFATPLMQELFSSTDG
# [3] = Intestinal tract distribution of RIF and RIFax in mice (intestinal contents, LC-MS/MS); format: in vivo; settings: mouse, in vivo, po, 10 mg/kg
# Description: (§1) The maximum concentration in serum (Cmax) was obtained from the original data. […] Intestinal contents were weighted, and homogenized in methanol (100 mg/ml). The homogenate was centrifuged at 14,000 rpm for 10 min at 4° C.
# (§2) The mass spectrometer was operated in the turbo ion spray mode with positive ion detection. The turbo ion spray temperature was maintained at 300° C., and a voltage of 4.8 kV was applied to the sprayer needle. N2 was used as the turbo ion spray and nebulizing gas.
# in vivo = format: in vivo; settings: mouse, in vivo, po, 10 mg/kg
# Description: as §1, §2
# [4] = Cont: hPXR mice without RIFax pretreatment
# [5] = hPXR mice pretreated with RIFax 10 mg/kg/day for 3 days
Structure (SMILES),AUC0-90 min (CYP3A; [4]),Cmax (CYP3A; [4]),Tmax (CYP3A; [4]),AUC0-90 min (CYP3A; [5]),Cmax (CYP3A; [5]),Tmax (CYP3A; [5]),AUC0-90 min ratio RIFax/Cont (CYP3A),Cmax ratio RIFax/Cont (CYP3A),Tmax ratio RIFax/Cont (CYP3A),MRP2 activation (MRP2 [1]),MRP2 induction (MRP2 [2]),DSS-induced colitis (PXR),concentration in the small intestine (content) [3],Cmax (in vivo)
"OCc1ncc2n1-c1ccc(Cl)cc1C(c1ccccc1F)=NC2 [1′-OH-MDZ, 1′-Hydroxymidazolam]",32.4 ± 3.0 µmol·min/L,562 ± 4.9 nM,25.0 ± 7.1 min,36.5 ± 4.2 µmol·min/L,823 ± 55.2 nM,7.5 ± 3.5 min,1.1,1.5,0.3,–,–,–,–,–
"Cc1ncc2n1-c1ccc(Cl)cc1C(c1ccccc1F)=NC2 [MDZ, midazolam]",8.0 ± 0.4 µmol·min/L,477 ± 40.3 nM,10.0 ± 0.0 min,8.9 ± 0.7 µmol·min/L,383 ± 19.1 nM,12.5 ± 10.6 min,1.1,0.8,1.3,–,–,–,–,–
CC(=O)[C@H]1[C@H](C#N)C[C@H]2[C@@H]3CC=C4C[C@@H](O)CC[C@]4(C)[C@H]3CC[C@@]21C [PCN],–,–,–,–,–,–,–,–,–,activated,not significantly induced,significantly prevented,–,–
"CO[C@H]1/C=C/O[C@@]2(C)Oc3c(C)c(O)c4c(O)c(c(/C=N/N5CCN(C)CC5)c(O)c4c3C2=O)NC(=O)/C(C)=C\C=C\[C@H](C)[C@H](O)[C@@H](C)[C@@H](O)[C@@H](C)[C@H](OC(C)=O)[C@@H]1C [RIF, 3-(4-Methylpiperazinyliminomethyl)rifamycin SV]",–,–,–,–,–,–,–,–,–,–,–,–,below 20 μg/g,2750 nM
